Experimental findings from US12702715B2, “Targeted RNA degradation allows precision repurposing of protein-targeted small molecule medicines to RNA” (University of Florida Research Foundation, Incorporated, priority 2020, dated 2026) are described below.

pIC50: −log10 of the molar value. Entries after “also recorded” stand apart in the source; their conditions may differ.

What all share (format): cell-based, human
One assay deals with MDA-MB-231 cells. Put plainly: Boyden chamber invasion assay, MDA-MB-231. Here is the method:
Boyden Chamber Invasion Assay. MDA-MB-231 or MCF-10A cells (5×10^4) in serum free growth medium with or without compound treatment were seeded into hanging cell culture inserts (for 24-well plates) pre-coated with Matrigel. Complete growth medium was added to the bottom well. After 16-24 h, the medium was removed, and the hanging inserts were washed with 1×DPBS twice and then fixed with 4% paraformaldehyde in 1×DPBS at room temperature for 20 min. Then the inserts were washed twice with 1×DPBS and stained with 0.1% (w/v) crystal violet 1×DPBS for 20 min. The inserts were washed twice with nanopure water and once with 1×DPBS. Cells on the surface of the Matrigel (non-invasive) were removed with cotton swabs and invading cells were counted and imaged under a microscope.

The subject of the next assay is PTEN. Nature of the assay: PTEN luciferase assay. The note with it: MDA-MB-231. The procedure: PTEN Luciferase Assay. To study de-repression of PTEN, a luciferase-based cellular assay was performed as previously described^6. Briefly, MDA-MB-231 cells (~60% confluency) in 48-well plates were co-transfected with plasmids encoding Renilla luciferase (for normalization) and firefly luciferase fused to the 3′ UTR of PTEN by using Lipofectamine 2000 according to the manufacturer's protocol. After 5 h, the cells were treated with the compounds diluted in growth medium. Luciferase assay were then completed as previously described^4, 9.

Assay [1] has as its system RTK / phosphorylation of ERK (pERK). Put plainly: Western blot of ERK phosphorylation (functional RTK inhibition) in MDA-MB-231 cells. To be noted: for pIC50: Homo sapiens, MDA-MB-231; for dose inhibiting ERK phosphorylation to the similar extent: Western blot quantification. Here is the method:
Western Blotting. MDA-MB-231 cells were plated in 6-well plates. […] The cells were harvested by trypsinization, and total protein was extracted with MPER (Mammalian Protein Extraction Reagent, Thermo Scientific) as previously described^6. Protein concentrations were determined by using a Pierce Micro BCA Protein Assay kit (Fisher Scientific). […] ImageJ software was used for quantification of the protein bands. […] In each case, the secondary antibody was diluted two times more than the primary antibody.

The test system of another assay is miR-21. Put plainly: RT-qPCR of mature miR-21 levels in MDA-MB-231 cells. The note with it: for reduction of mature miR-21 levels: 1 μM; for mature miR-21 levels: MDA-MB-231, RT-qPCR. The procedure:
Cell Culture. Cells were cultured at 37° C. and 5% CO2. […] For compound treatment, compound stocks either in DMSO or water were diluted in growth medium and added to cells for the indicated time. […] After transfection, the medium was replaced with growth medium containing the compound of interest, prepared as described above. The RNase L-targeting siRNA or a control siRNA was transfected with Lipofectamine RNAiMAX reagent (Invitrogen) per the manufacturer's protocol.
(§1) RNA Isolation and Quantitative Real-Time PCR (RT-qPCR). After treatment, total RNA was extracted and purified by using the Zymo Quick-RNA mini prep kit per the manufacturer's protocol. Reverse Transcription (RT) for mature miRNAs as well as pri- and pre-miR-21 was completed on 200 ng of RNA by using a miScript 11 RT kit (QIAGEN) according to manufacturer's protocol. RT of mRNAs was performed by using QScript kit (Quanta Bio). An Applied Biosystems QS5 384-well PCR system was used to complete qPCR experiments using Power Sybr Green Mater Mix (Life Technologies) as described previously^6.
On the technique in general: Quantitative PCR measures a nucleic acid by following its amplification.

Another assay has as its system pre-miR-21. Put plainly: RT-qPCR of pre-miR-21 levels in MDA-MB-231 cells. The note with it: for pre-miR-21 levels: MDA-MB-231, RT-qPCR. The procedure: Cell Culture. Cells were cultured at 37° C. and 5% CO2. MDA-MB-231 cells (HTB-26, ATCC) were cultured in RMPI 1640 medium with L-glutamine & 25 mM HEPES supplemented with 1× Antibiotic/Antimycotic solution (Corning) and 10% FBS. MCF-10A cells (CRL-10317, ATCC) were cultured in 1×DMEM/F12 50/50 with L-glutamine & 15 mM HEPES (Corning) supplemented with 20% FBS, 1× Antibiotic/Antimycotic solution, 20 ng/mL human epidermal growth factor (Pepro Tech, Inc.), 10 μg/mL insulin (Sigma-Aldrich), and […] hydrocortisone (Pfaltz & Bauer). For compound treatment, compound stocks either in DMSO or water were diluted in growth medium and added to cells for the indicated time. Plasmid DNA to overexpress pre-miR-21 in pcDNA 3.1 (Addgene 21114) or a plasmid DNA encoding the pre-miR-21 mutant (custom purchased from GenScript USA, Inc.) was transfected with jetPRIME per the manufacturer's protocol. After transfection, the medium was replaced with growth medium containing the compound of interest, prepared as described above. The RNase L-targeting siRNA or a control siRNA was transfected with Lipofectamine RNAiMAX reagent (Invitrogen) per the manufacturer's protocol.
as §1

Assay [2] relates to proteome of MDA-MB-231 cells. Nature of the assay: Global proteomics profiling by LC-MS/MS. To be noted: for number of proteins significantly affected / abundance of miR-21 regulated proteins: 1 and 2 at 1 μM; for number of proteins significantly affected: LNA-21 0.1 μM, 48 h, 3000 proteins detected; for abundance of miR-21 regulated proteins: LNA-21 100 nM; for proteins associated with miR-let-7: control. The procedure:
Global Proteomics Profiling by Using LC-MS/MS. MDA-MB-231 cells (~60% confluency) were treated with 1 (1 μM), 2 (1 μM), LNA-21 (0.1 μM), or vehicle for 48 h. After washing with 1×DPBS, the cells were harvested by scraping and resuspended in 1×DPBS. They were lysed by sonication and centrifuged at 14,000×g for 15 min. Protein concentrations were determined by a Bradford assay (Bio-Rad). Protein samples (340 μg) were denatured with 6 M urea in 50 mM NH4HCO3, pH 8, reduced with 10 mM TCEP (tris(2-carboxyethyl)phosphine hydrochloride) for 30 min, and alkylated with 25 mM iodoacetamide for 30 min in the dark. The samples were diluted to a final concentration of 2 M urea with 50 mM NH4HCO3, pH 8, and CaCl2) was added to a final concentration of 1 mM. The protein mixture was digested with tiypsin (1.5 μL of 0.5 μg/μL) overnight at 37° C. The digested protein samples were acidified with acetic acid and desalted over a self-packed C18 spin column. After lyophilization, the samples were analyzed by LC-MS/MS as described below.
LC-MS/MS Analysis and MaxQuant Analysis. The lyophilized protein obtained above was resuspended in 0.1% formic acid in water and analyzed by using an EASY-nLC 1200 nano-UHPLC coupled to Q Exactive HF-X Quadrupole-Orbitrap mass spectrometer (Thermo Scientific) as previously reported^6. Obtained spectra were then analyzed with MaxQuant (V1.6.1.0). Spectra were searched against the human proteome (Uniprot) and common contaminants. The search tolerance was set to 20 ppm for the first peptide search and 10 ppm for the main peptide search. The false discovery rate (FDR) for proteins, peptides and sites identification was set at 5%. All the parameters were set as previously reported^6.
Principal Component Analysis. Principal component analysis (PCA) was completed on the proteomics data that included 2,315 proteins that were detected in all samples after the technical replications were averaged, to visualize overall differences across the samples. R build in package prcomp^10 was used to perform the analysis, where scale was set to TRUE.

As to `CCOC(=O)C1=C(Nc2ccccc2)S/C(=C\c2ccc(OCCOCCOCCOCCNC(=O)NCCN3CCN(c4ccc5[nH]c(-c6c(N)c7c(F)cccc7[nH]c6=O)nc5c4)CC3)c(O)c2)C1=O` [Compound 2, Ribotac-Dovitinib], the “invasion of MDA-MB-231 cells” value in the assay on MDA-MB-231 cells was “reduced the invasive characteristic”. In addition, the “PTEN expression (luciferase-based assay)” value in the assay on PTEN is “derepressed”. For the same molecule, in assay [1], the “fold decrease of RTK inhibition relative to 1” value is 100 fold, the pIC50 is 5.00 and the “dose inhibiting ERK phosphorylation to the similar extent” value was 5 µM. The “shift of selectivity toward miR-21 over RTK” value in assay [1] (25-fold (miR-21) × 100-fold (RTK), relative to 1) is reported as 2,500 fold. Further, the “inhibition of ERK phosphorylation compared to 1” value in assay [1] (Western blot) is reported as “reduced ability to inhibit ERK phosphorylation compared to 1”. Further, in the assay on miR-21 (MDA-MB-231), the “reduction of mature miR-21 levels” value is given as ~ 45±9%, the “concentration giving a reduction of mature miR-21 similar to 5 μM of 1” value came to 200 nM and the “fold increase in potency / miR-21 inhibitory activity compared with 1” value is recorded as 25 fold. In the assay with miR-21, the “mature miR-21 levels” value is “reduced”. Also, the “cleavage of pre-miR-21 upon knock down of RNase L with an siRNA” value in the assay with pre-miR-21 (MDA-MB-231) is “reduced; also recorded: repressed cleavage”. Also, the pre-miR-21 levels entry in the assay with pre-miR-21 was “decreased; also recorded: reduced”. Also, in assay [2], the “PCA similarity of proteome” value was “more similar to treatment with LNA-21 than 1”, the “number of proteins significantly affected” value is given as 28, the “abundance of miR-21 regulated proteins” value is on record as “globally upregulated; also recorded: significant increase in abundance” and the “proteins associated with miR-let-7” value was “Neither treatment with 1 nor 2 affected”.

In the case of `CN1CCN(c2ccc3nc(-c4c(N)c5c(F)cccc5[nH]c4=O)[nH]c3c2)CC1` [Compound 1, Dovitinib, reference compound], in the assay on MDA-MB-231 cells, the “invasion of MDA-MB-231 cells” value is recorded as “inhibited invasiveness; also recorded: reduced”. The “PTEN expression (luciferase-based assay)” value in the assay on PTEN is listed as “derepressed”. In addition, in assay [1], the pIC50 was 7.00 and the “dose inhibiting ERK phosphorylation to the similar extent” value came out at 0.05 µM. Moreover, the “reduction of mature miR-21 levels” value in the assay with miR-21 (MDA-MB-231) is “not reduced”. Besides, in the assay on miR-21 (5 μM dose, MDA-MB-231), the “decrease of mature miR-21 levels” value is 32±4%. The “mature miR-21 levels” value in the assay on miR-21 is “significantly reducing mature miR-21 levels; also recorded: reduced”. Moreover, the pre-miR-21 levels result in the assay with pre-miR-21 was “increased; also recorded: enhanced”. The “competition of cleavage of pre-miR-21 by RIBOTAC 2” value in the assay with pre-miR-21 (constant concentration of 2 (1 μM), increasing competitor) is given as “competed away cleavage”. In addition, the “number of affected proteins associated with ERK pathways” value in assay [2] (1 μM) turned out to be 14. For the same molecule, in assay [2], the “number of proteins significantly affected” value was 46, the “abundance of miR-21 regulated proteins” value is given as “had no effect; also recorded: no significant changes” and the “proteins associated with miR-let-7” value is recorded as “Neither treatment with 1 nor 2 affected”.

With `C#CCCC1(CCC(=O)NCCN2CCN(c3ccc4[nH]c(-c5c(N)c6c(F)cccc6[nH]c5=O)nc4c3)CC2)N=N1` [Compound 4], the “mature miR-21 levels” value with miR-21 is listed as “decreases”. In the assay with pre-miR-21, the pre-miR-21 levels result is given as “increases”.

As a reminder, the pIC50 is the negative decadic logarithm of the IC50, by convention in mol/L.
